Results from patent US9260382B2, “Methods of reducing virulence in bacteria” (priority 2010, dated 2016).

Columns and labels:
[1] = tested on: hrpL promoter; assay: GFP reporter plasmid phrpL, flow cytometry of hrpL promoter activity; format: cell-based, Dickeya dadantii 3937; details: for mean fluorescence intensity of GFP, hrpL promoter: 3937 (phrpL), MM + 100 μM; for GFP Mean Fluorescence Intensity, hrpL promoter: MM + 0.1 mM compound
Procedure: FACS analysis of promoter activity of dspE, hrpA, hrpL, hrpN, and hrpS was carried out as described (Peng et al., 2006). Briefly, the wild-type Ech3937 and the mutant strains carrying the promoter reporter plasmid were grown on LB broth at 28° C. overnight and transferred to appropriate media. For FACS analysis, samples were collected by centrifugation, washed with 1× phosphate buffer saline (PBS) at 13,000 rpm for 1 min, and re-suspended in 1×PBS to ca 10^6 CFU/ml prior to being run in a FACS Calibur flow cytometer (BD Biosciences, CA). Three replicates were performed for each treatment.

[2] = tested on: hrpS promoter; assay: GFP reporter plasmid phrpS, flow cytometry of hrpS promoter activity; format: cell-based, Dickeya dadantii 3937; details: for mean fluorescence intensity of GFP, hrpS promoter: 3937 (phrpS), MM + 100 μM; for GFP Mean Fluorescence Intensity, hrpS promoter: MM + 0.1 mM compound
Outline: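 Wild-type Ech3937 and mutant strains carrying the phrpS GFP reporter were grown overnight in LB at 28 °C, then transferred to appropriate media with compounds. Cells were washed and resuspended in PBS to ca 10^6 CFU/ml for flow cytometry, three replicates per treatment.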

[3] = tested on: exoS promoter (T3SS); assay: exoS promoter-gfp reporter pATexoS, flow cytometry; format: cell-based, P. aeruginosa PA01; details: for Actual readings of flow cytometry (exoS expression): 6 h, LB with 200 mM NaCl, 10 mM NTA; for Fraction of untreated control (exoS expression): structure-activity table, concentration not given
Procedure: To identify T3SS inhibitors of PA01, a promoter-probe vector pPROBE-AT containing the promoterless green fluorescent protein (gfp) gene was used to construct an exoS promoter-gfp plasmid reporter, pATexoS. PA01 containing pATexoS was cultured in T3SS-inducing medium containing dimethyl sulfoxide (DMSO; solvent of chemical compounds), or supplemented with 250 μM of each compound, and promoter activity was assessed at 6 h by measuring GFP intensity using flow cytometry. 101 compounds (58 synthesized and 43 commercially available) were screened. Compounds 027, 032, 101, and 149 repressed exoS expression at the final concentration of 250 μM by at least one standard deviation below the sample average (Z score≦−1) (FIG. 37 A-E). Z score (or standard score) indicates how many standard deviations an observation or datum is above or below the mean [z=(x−μ)/σ, where x is a raw score to be standardized, μ is the mean of the population, and σ is the standard deviation of the population].
To determine the effective concentration of compounds, the dose-dependent effect of potential inhibitors on exoS expression and bacterial growth were tested. P. aeruginosa cells carrying pATexoS were pre-cultured in LB supplemented with 200 mM NaCl and transferred to fresh LB with 200 mM NaCl, 10 mM NTA, and various concentrations of compounds (20, 50, 100, and 250 μM) or DMSO for 6 h. […] At 50 μM dosage, both 027 and 101 inhibited exoS expression at similar levels, and this inhibitory effect increased as compound concentration increased (FIG. 38A and Table 17). […] These inhibitions/inductions of exoS expression are caused by the shifting bacterial population between low-state expression cells and high-state expression cells (FIG. 40).

[4] = tested on: Dickeya dadantii 3937 (Ech3937); assay: Bacterial growth in MM supplemented with compound; format: cell-based; details: compound added into the MM
Excerpt: Phenolic compounds constitute an important class of organic substances produced by plants. The phenolic compound SA is a signaling molecule that plays a role in host defenses. OCA and TCA are the biosynthetic precursors of SA and are also reported to induce the expression of defense-related genes in plants. OCA, TCA, and SA were examined to elucidate their effects on the expression of T3SS genes. The expression of the T3SS gene hrpN was examined in MM and MM supplemented with OCA, TCA, and SA, at concentrations of 0.05, 0.1, and 0.2 mM, respectively. FIGS. 2A and 2B show the promoter activities of hrpN in Dickeya dadantii 3937 (Ech3937) grown in MM and MM supplemented with 0.05, 0.1, and 0.2 mM OCA, TCA, and SA at 12 h (FIG. 2A) and 24 h (FIG. 2B) post-inoculation. GFP intensity was determined on gated populations of bacterial cells by flow cytometry and analyzed with the Cell Quest software (BD Biosciences, San Jose, Calif.). The growth of Ech3937 in MM supplemented with different concentrations of OCA, TCA and SA was recorded. Compared with MM alone, the average GFP fluorescence intensity of bacterial cells of Ech3937 (phrpN) was increased approximately 4-fold when 0.05 mM of OCA and TCA were added to the medium (FIGS. 2A, 2B).
The expression of the T3SS gene hrpA was further examined in MM and MM supplemented with PCA at concentrations of 0.001, 0.005, 0.01, 0.05 and 0.1 mM respectively. FIGS. 16A and 16B show the promoter activities of hrpA in Dickeya dadantii 3937 (Ech3937) grown in minimum medium (MM) and MM supplemented with different amount of p-coumaric acid (PCA) at 12 h (FIG. 16A) and 24 h (FIG. 16B) post-inoculation. GFP intensity was determined on gated populations of bacterial cells by flow cytometry and analyzed with the Cell Quest software (BD Biosciences, San Jose, Calif.). The growth of Ech3937 in MM supplemented with different concentrations of PCA was recorded. Compared with MM alone, the average GFP fluorescence intensity of bacterial cells of Ech3937 (phrpA) was reduced more than 4-fold when 0.05 and 0.1 mM of PCA were added to the medium (FIGS. 16A, 16B).

[5] = tested on: dspE mRNA; assay: qRT-PCR relative mRNA level of dspE; format: cell-based, Dickeya dadantii 3937; details: 0.1 mM in MM
Procedure: (§1) Bacterial strains were grown in MM. Total RNA from the bacterial cells was isolated by using the TRI reagent method (Sigma, Mo.) and treated with Turbo DNA-free DNase kits (Ambion, Tex.) as described (Peng et al., 2006). An iScript cDNA Synthesis Kit (Bio-Rad, CA) was used to synthesize cDNA from 0.5 μg of treated total RNA. The Real Master Mix (Eppendorf, Westbury, N.Y.) was used for qRT-PCR reaction to quantify the cDNA level of target genes in different samples. The rplU was used as the endogenous control for data analysis. qRT-PCR data were analyzed using Relative Expression Software Tool as described (Pfaffl, M. W., Horgan, G. W., and Dempfle, L. (2002) Relative expression software tool (REST) for group-wise comparison and statistical analysis of relative expression results in real-time PCR. Nucleic Acids Res 30:e36.).

[6] = tested on: hrpA mRNA; assay: qRT-PCR relative mRNA level of hrpA; format: cell-based, Dickeya dadantii 3937; details: 0.1 mM in MM
Procedure: as §1

[7] = hrpL mutant WPP96 (phrpS), 12 h

SMILES	mean fluorescence intensity of GFP, hrpL promoter ([1]; 12 h)	mean fluorescence intensity of GFP, hrpL promoter ([1]; 24 h)	mean fluorescence intensity of GFP, hrpS promoter ([2]; 12 h)	mean fluorescence intensity of GFP, hrpS promoter ([2]; 24 h)	inhibitory effect on T3SS hrpS expression, in words ([2]; reporter plasmid phrpS)	Actual readings of flow cytometry (exoS expression) ([3]; 20 uM)	Actual readings of flow cytometry (exoS expression) ([3]; 50 uM)	Actual readings of flow cytometry (exoS expression) ([3]; 100 uM)	Actual readings of flow cytometry (exoS expression) ([3]; 250 uM)	Fraction of untreated control (exoS expression) [3]	GFP Mean Fluorescence Intensity, hrpL promoter ([1]; Ech3937 (phrpL), 12 h)	GFP Mean Fluorescence Intensity, hrpS promoter ([2]; Ech3937 (phrpS), 12 h)	GFP Mean Fluorescence Intensity, hrpS promoter [2, 7]	effect on bacterial growth of Ech3937 in MM, in words [4]	dspE mRNA compared with MM alone, in words [5]	hrpA mRNA compared with MM alone, in words [6]	GFP Mean Fluorescence Intensity, hrpL promoter ([1]; hrpL mutant WPP96 (phrpL), 12 h)	effect on exoS promoter activity, in words ([3]; screening for T3SS inhibitors)
O=C(/C=C/c1ccc(O)cc1)NO [Compound 103, trans-4-Hydroxycinnamohydroxamic acid]	7.6 ± 0.2	7.7 ± 0.2	27.7 ± 1.5	26.4 ± 0.6	inhibited hrpS	179.07 ± 2.98	237.31 ± 4.94	279.16 ± 2.72	328.30 ± 3.24	2.04 ± 0.13	–	–	–	–	–	–	–	–
O=C(O)/C=C/c1ccccc1O [Compound 006, Ortho-coumaric acid]	–	–	–	–	–	–	–	–	–	–	19 ± 0	56 ± 1	350 ± 17	No reduction of bacterial growth	significantly higher amount	significantly higher amount	–	–
O=C(O)/C=C/c1ccccc1 [Compound 001, trans-cinnamic acid]	–	–	–	–	–	–	–	–	–	–	19 ± 1	54 ± 2	360 ± 16	No reduction of bacterial growth	–	–	331 ± 27	–
O=C(O)/C=C/c1ccc(O)cc1 [Compound 004, para-coumaric acid]	–	–	–	–	–	119.08 ± 1.82	127.05 ± 4.43	118.16 ± 2.73	117.74 ± 5.09	0.94 ± 0.05	7.8 ± 0.1	–	–	Inhibition of bacterial growth was not observed	significantly lower amount of mRNA	significantly lower amount of mRNA	–	little or no effect on exoS promoter activity
